Test results reported in patent publication US8207216B2, “Benzofuran-3-yl(indol-3-yl) maleimides as potent GSK3 inhibitors” (The Board of Trustees of the University of Illinois, priority 2006, dated 2012).

Experiments:
[1] = biological target: T1, recombinant human His6-GSK-3β (Homo sapiens, UniProt P49841); experiment: GSK-3β kinase assay, [γ32P] transfer to primed glycogen synthase peptide; assay type: biochemical; settings: for IC50: 10 μM ATP, 10 μM pGSM peptide, 30 minutes at 30° C., read-out: IC50 (nM), GSK-3β inhibition;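 as to all read-outs here: phosphate incorporation quantified by liquid scintillation counting of the filters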
T1 construct: His6; purchased EMD Biosciences
T1 sequence (P49841 whole entry): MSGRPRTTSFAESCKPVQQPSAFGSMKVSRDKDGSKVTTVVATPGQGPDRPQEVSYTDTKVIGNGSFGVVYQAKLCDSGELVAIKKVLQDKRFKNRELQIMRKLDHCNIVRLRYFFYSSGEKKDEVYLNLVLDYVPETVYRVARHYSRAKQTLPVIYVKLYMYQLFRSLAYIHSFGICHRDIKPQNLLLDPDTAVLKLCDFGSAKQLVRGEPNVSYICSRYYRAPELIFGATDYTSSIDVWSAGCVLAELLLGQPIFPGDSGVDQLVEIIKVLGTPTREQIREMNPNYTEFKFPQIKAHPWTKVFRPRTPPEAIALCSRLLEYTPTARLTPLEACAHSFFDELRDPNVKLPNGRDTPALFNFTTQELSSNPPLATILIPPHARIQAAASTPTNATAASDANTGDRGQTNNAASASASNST

CDK2 = CDK2 (Homo sapiens, UniProt P24941); experiment: Inhibition of various kinases (% inhibition); assay type: biochemical
Description: (§1) Additional examples of selectivity are illustrated in Table 4.

GSK3α = GSK3α (Homo sapiens, UniProt P49840); experiment: Inhibition of various kinases (% inhibition); assay type: biochemical
GSK3α, sequence (P49840 whole entry, species assumed): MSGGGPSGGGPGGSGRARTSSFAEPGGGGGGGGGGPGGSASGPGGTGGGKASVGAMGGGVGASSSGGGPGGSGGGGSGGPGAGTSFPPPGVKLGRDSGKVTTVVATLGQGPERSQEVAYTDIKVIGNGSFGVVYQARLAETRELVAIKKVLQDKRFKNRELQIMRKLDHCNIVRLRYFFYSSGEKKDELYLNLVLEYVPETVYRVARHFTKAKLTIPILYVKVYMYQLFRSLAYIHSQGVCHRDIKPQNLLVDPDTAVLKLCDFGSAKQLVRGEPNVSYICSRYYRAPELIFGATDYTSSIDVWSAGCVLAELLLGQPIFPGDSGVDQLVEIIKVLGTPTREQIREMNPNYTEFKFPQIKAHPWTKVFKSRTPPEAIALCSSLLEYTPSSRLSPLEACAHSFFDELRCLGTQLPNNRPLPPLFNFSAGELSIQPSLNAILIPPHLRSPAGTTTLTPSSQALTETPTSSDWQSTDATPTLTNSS
Description: as §1

PDK1 = biological target: T2, PDK1 (Homo sapiens, UniProt O15530); experiment: Inhibition of various kinases (% inhibition); assay type: biochemical
T2 sequence (O15530 1-556): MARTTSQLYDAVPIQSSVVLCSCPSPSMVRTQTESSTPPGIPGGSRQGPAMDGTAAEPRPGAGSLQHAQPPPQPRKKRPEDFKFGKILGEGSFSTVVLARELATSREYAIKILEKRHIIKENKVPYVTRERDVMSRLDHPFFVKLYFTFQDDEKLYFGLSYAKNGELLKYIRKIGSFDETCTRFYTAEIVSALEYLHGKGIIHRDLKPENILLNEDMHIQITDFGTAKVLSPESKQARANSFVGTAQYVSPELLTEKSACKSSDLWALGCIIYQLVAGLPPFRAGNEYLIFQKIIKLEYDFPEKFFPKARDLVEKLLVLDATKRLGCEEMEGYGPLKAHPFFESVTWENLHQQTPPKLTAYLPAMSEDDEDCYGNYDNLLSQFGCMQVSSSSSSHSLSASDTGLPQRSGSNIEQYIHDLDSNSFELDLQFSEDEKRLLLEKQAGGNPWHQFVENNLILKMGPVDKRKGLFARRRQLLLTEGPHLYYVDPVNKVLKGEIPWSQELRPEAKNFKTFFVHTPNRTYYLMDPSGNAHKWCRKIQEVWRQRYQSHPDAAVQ
Description: as §1

PKCβ2 = PKCβ2 (Homo sapiens, UniProt P05771); experiment: Inhibition of various kinases (% inhibition); assay type: biochemical
PKCβ2, sequence (P05771 1-673 isoform P05771-2): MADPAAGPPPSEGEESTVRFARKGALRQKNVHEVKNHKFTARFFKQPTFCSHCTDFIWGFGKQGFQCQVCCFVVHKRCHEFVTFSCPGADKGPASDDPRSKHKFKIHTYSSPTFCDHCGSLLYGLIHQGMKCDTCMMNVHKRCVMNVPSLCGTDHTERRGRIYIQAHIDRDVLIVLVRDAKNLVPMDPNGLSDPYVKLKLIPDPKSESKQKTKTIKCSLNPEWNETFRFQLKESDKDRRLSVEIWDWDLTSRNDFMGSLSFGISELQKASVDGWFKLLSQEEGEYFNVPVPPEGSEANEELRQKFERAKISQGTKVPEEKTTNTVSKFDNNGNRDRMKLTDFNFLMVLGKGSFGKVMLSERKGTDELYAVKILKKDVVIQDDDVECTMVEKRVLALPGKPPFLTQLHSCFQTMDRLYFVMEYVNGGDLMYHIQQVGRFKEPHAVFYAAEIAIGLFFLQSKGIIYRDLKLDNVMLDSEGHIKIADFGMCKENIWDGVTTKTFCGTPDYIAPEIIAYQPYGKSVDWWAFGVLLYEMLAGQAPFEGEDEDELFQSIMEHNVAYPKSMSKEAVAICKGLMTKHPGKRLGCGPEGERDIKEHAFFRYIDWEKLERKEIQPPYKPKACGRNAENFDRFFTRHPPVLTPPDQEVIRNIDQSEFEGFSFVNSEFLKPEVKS
Description: as §1

CDK-2/cyclinE = CDK-2/cyclinE (Homo sapiens, UniProt P24941); experiment: CDK-2/CyclinE inhibition (Reaction Biology); assay type: biochemical; settings: for IC50 Ratio CDK-2/cyclinE GSK-3β: selectivity ratio; for IC50: tested at Reaction Biology, Inc.
MIAPaCa-2 = experiment: Antiproliferation MTS assay, pancreatic cancer cells; assay type: cell-based; settings: Homo sapiens
[2] = test system: pancreatic cancer cell lines; experiment: Proliferation and survival of pancreatic cancer cells (overall statements); assay type: cell-based; settings: based on data of Table 5
Protocol: (§2) The pancreatic cancer cell lines BxPc-3, HupT3, MiaPaCa-2, Panc 04.03, and SU86.86 were obtained from ATCC (Rockville, Md.) and were grown in medium (DMEM or RPMI) containing 10% fetal calf serum and L-glutamine. Pancreatic cancer cells were plated out in duplicate into 6-wells of a 96-well microtiter plate at 2.5−4×10^3 cells per well. Four-hours post plating, individual wells were treated with diluent (DMSO) or varying concentrations of commercial compounds, AR-A014418 and SB216763, or the indicated GSK inhibitors of this invention from a concentration of 1 nM to 50 microM. […] The IC50s were calculated using XLfit (IDBS Limited, Guildford, UK).

BXPC-3 = experiment: Antiproliferation MTS assay, pancreatic cancer cells; assay type: cell-based; settings: Homo sapiens, BXPC-3, as reported in Gaisina et al. (2009) J. Med. Chem. 52(7), 1853-1863
HupT3 = experiment: as above; assay type: cell-based; settings: Homo sapiens, HuP-T3, as reported in Gaisina et al. (2009) J. Med. Chem. 52(7), 1853-1863
CDK-1/cyclinB = CDK-1/cyclinB (Homo sapiens, UniProt P06493); experiment: CDK panel (Reaction Biology); assay type: biochemical; settings: tested at Reaction Biology, Inc.
CDK-1/cyclinB, sequence (P06493 whole entry, species assumed): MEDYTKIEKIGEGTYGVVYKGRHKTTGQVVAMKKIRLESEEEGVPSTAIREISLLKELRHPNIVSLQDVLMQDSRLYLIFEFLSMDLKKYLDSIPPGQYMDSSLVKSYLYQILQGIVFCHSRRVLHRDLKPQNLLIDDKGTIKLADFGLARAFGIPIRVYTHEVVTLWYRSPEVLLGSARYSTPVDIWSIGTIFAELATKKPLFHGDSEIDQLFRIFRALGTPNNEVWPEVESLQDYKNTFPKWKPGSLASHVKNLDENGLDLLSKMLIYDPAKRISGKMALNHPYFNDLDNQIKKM
CDK-1/cyclinB, sequence (P14635 whole entry partner, species assumed): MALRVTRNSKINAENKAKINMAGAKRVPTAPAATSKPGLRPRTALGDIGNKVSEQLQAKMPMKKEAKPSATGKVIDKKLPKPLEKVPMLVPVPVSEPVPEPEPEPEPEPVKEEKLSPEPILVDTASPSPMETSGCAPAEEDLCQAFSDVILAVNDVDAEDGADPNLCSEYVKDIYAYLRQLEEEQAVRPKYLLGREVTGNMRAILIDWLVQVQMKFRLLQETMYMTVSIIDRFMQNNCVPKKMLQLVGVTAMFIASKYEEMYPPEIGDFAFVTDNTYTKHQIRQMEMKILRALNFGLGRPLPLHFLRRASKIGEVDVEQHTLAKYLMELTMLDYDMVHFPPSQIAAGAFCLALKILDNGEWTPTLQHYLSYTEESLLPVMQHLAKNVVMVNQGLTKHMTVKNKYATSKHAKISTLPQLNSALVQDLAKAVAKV

CDK-2/cyclinA = CDK-2/cyclinA (Homo sapiens, UniProt P24941); experiment: CDK panel (Reaction Biology); assay type: biochemical; settings: tested at Reaction Biology, Inc.
CDK-4/cyclinD1 = CDK-4/cyclinD1 (Homo sapiens, UniProt P11802); experiment: CDK panel (Reaction Biology); assay type: biochemical; settings: tested at Reaction Biology, Inc.
CDK-4/cyclinD1, sequence (P11802 whole entry, species assumed): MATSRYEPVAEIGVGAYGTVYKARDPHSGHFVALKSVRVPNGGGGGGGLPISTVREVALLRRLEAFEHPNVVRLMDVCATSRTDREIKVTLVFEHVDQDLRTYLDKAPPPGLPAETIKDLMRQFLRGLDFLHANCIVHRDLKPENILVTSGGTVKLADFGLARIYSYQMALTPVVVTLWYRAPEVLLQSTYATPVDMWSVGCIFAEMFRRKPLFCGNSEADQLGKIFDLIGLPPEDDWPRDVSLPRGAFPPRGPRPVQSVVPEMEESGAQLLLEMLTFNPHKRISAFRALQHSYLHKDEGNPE
CDK-4/cyclinD1, sequence (P24385 whole entry partner, species assumed): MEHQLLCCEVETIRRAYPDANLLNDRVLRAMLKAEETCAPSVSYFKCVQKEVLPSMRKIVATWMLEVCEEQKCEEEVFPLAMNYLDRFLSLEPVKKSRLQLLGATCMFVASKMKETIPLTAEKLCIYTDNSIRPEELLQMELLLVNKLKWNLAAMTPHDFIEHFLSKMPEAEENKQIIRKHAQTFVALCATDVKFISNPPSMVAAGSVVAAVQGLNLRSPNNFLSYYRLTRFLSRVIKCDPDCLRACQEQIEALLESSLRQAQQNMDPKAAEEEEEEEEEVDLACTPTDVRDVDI

CDK-6/cyclinD3 = CDK-6/cyclinD3 (Homo sapiens, UniProt Q00534); experiment: CDK panel (Reaction Biology); assay type: biochemical; settings: tested at Reaction Biology, Inc.
CDK-6/cyclinD3, sequence (Q00534 whole entry, species assumed): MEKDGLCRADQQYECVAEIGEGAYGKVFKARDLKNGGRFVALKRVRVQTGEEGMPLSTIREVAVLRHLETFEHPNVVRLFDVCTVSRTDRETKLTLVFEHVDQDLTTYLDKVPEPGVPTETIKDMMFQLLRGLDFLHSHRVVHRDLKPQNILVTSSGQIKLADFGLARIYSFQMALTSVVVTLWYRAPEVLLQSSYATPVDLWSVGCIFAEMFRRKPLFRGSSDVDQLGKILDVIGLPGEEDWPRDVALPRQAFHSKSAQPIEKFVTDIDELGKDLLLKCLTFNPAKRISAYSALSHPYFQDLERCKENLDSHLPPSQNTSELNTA
CDK-6/cyclinD3, sequence (P30281 whole entry partner, species assumed): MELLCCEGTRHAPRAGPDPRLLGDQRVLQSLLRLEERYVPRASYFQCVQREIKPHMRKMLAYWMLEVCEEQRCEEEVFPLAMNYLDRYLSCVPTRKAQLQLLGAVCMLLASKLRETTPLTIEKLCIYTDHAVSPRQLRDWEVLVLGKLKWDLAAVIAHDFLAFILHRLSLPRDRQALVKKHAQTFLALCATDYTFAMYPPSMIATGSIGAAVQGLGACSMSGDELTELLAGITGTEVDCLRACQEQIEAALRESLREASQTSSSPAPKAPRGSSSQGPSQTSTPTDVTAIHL

OVCA432 = experiment: Antiproliferation assay, ovarian cancer cells; assay type: cell-based; settings: ovarian cancer cell proliferation
Protocol: as §2
(§3) Similar antiproliferation assays were performed using ovarian cancer cells. Compound 40 is of particular interest for inhibition of ovarian cancer cell proliferation.

SKOV3 = experiment: Antiproliferation assay, ovarian cancer cells; assay type: cell-based; settings: Homo sapiens, SK-OV-3; ovarian cancer cell proliferation
Protocol: as §2, §3

## 3-Benzofuran-3-yl-4-[5-bromo-1-(3-hydroxy-propyl)-1H-indol-3-yl]-pyrrole-2,5-dione [Compound 20]
[1]
  Ki: 5 nM
  IC50: 7.5 ± 1.1 nM
CDK2; 1 μM
  % Inhibition CDK2: 76%
CDK2; 10 μM
  % Inhibition CDK2: 90%
GSK3α; 1 μM
  % Inhibition GSK3α: 58%
GSK3α; 10 μM
  % Inhibition GSK3α: 100%
PDK1; 1 μM
  % Inhibition PDK1: 7%
PDK1; 10 μM
  % Inhibition PDK1: −1%
PKCβ2; 1 μM
  % Inhibition PKCβ2: 8%
PKCβ2; 10 μM
  % Inhibition PKCβ2: 62%
CDK-2/cyclinE
  IC50 Ratio CDK-2/cyclinE GSK-3β: 150
  IC50: 1160 nM

## Cn1cc(C2=C(c3coc4ccccc34)C(=O)NC2=O)c2ccccc21 [Compound 1, 3-Benzofuran-3-yl-4-(1-methyl-1H-indol-3-yl)-pyrrole-2,5-dione]
[1]
  IC50: 35 ± 9 nM
CDK-2/cyclinE
  IC50 Ratio CDK-2/cyclinE GSK-3β: 40
  IC50: 1410 nM
MIAPaCa-2; MIA PaCa-2, 72 hrs, MTS
  IC50: 3 µM
[2]
  Inhibition of pancreatic cancer cell proliferation compared with AR-A014418 and SB216768: more effective inhibition of pancreatic cancer cell proliferation than these reference compounds

## Cn1cc(C2=C(c3coc4ccccc34)C(=O)NC2=O)c2cc(F)c(Cl)cc21 [Compound 12, 3-Benzofuran-3-yl-4-(6-chloro-5-fluoro-1-methyl-1H-indol-3-yl)-pyrrole-2,5-dione]
[1]
  IC50: 184 ± 31 nM
MIAPaCa-2; MIA PaCa-2, as reported in Gaisina et al. (2009) J. Med. Chem. 52(7), 1853-1863
  IC50: 3 ± 0.4 µM
MIAPaCa-2; MIA PaCa-2, 72 hrs, MTS
  IC50: < 1 µM
BXPC-3
  IC50: 2 ± 0.2 µM
HupT3
  IC50: 2 ± 0.3 µM
[2]
  Inhibition of pancreatic cancer cell proliferation compared with AR-A014418 and SB216768: more effective inhibition of pancreatic cancer cell proliferation than these reference compounds

## O=C1NC(=O)C(c2cn(CCCO)c3ccc(Br)cc23)=C1c1coc2ccccc12 [Compound 21, 3-Benzofuran-3-yl-4-[5-bromo-1-(3-hydroxy-propyl)-1H-indol-3-yl]-pyrrole-2,5-dione]
[1]
  IC50: 1.61 ± 0.09 nM
CDK2; 1 μM
  inhibition at 1 µM: 62%
CDK2; 10 μM
  inhibition at 10 µM: 95%
GSK3α; 1 μM
  inhibition at 1 µM: 62%
GSK3α; 10 μM
  inhibition at 10 µM: 99%
PDK1; 1 μM
  inhibition at 1 µM: 80%
PDK1; 10 μM
  inhibition at 10 µM: 92%
PKCβ2; 1 μM
  inhibition at 1 µM: 62%
PKCβ2; 10 μM
  inhibition at 10 µM: 83%

## Cn1cc(C2=C(c3coc4cc(CO)ccc34)C(=O)NC2=O)c2cc(Br)ccc21 [Compound 22, 3-(5-Bromo-1-methyl-1H-indol-3-yl)-4-(6-hydroxymethyl-benzofuran-3-yl)-pyrrole-2,5-dione]
CDK-2/cyclinE
  IC50: 337 nM
CDK-1/cyclinB
  IC50: 0.93 µM
CDK-2/cyclinA
  IC50: 0.55 µM
CDK-4/cyclinD1
  IC50: 1.08 µM
CDK-6/cyclinD3
  IC50: 0.51 µM
OVCA432
  IC50: 14.2 µM
SKOV3
  IC50: 51.5 µM

## C#CCOc1ccc2c(C3=C(c4cn(C)c5ccc(Br)cc45)C(=O)NC3=O)coc2c1 [Compound 23, 3-(5-Bromo-1-methyl-1H-indol-3-yl)-4-(6-prop-2-ynyloxy-benzofuran-3-yl)-pyrrole-2,5-dione]
[1]
  IC50: 25.3 ± 2.4 nM
CDK2; 1 μM
  inhibition at 1 µM: 22%
CDK2; 10 μM
  inhibition at 10 µM: 66%
GSK3α; 1 μM
  inhibition at 1 µM: 84%
GSK3α; 10 μM
  inhibition at 10 µM: 99%
PDK1; 1 μM
  inhibition at 1 µM: 12%
PDK1; 10 μM
  inhibition at 10 µM: 45%
PKCβ2; 1 μM
  inhibition at 1 µM: 3%
PKCβ2; 10 μM
  inhibition at 10 µM: 25%
